Experimental data: patent US11370796B2, “Substituted pyrazoles as LRRK2 inhibitors” (OSCOTEC INC., priority 2017, dated 2022)
Like-named read-outs stand apart in the source and are kept apart here.

Molecular target: LRRK2 (leucine-rich repeat kinase 2) (Homo sapiens (Human), UniProt Q5S007)
Assay: Inhibitory effect on LRRK2 in vitro (LANCE kinase assay)
Type: biochemical
Description: The inhibitory effect of Compounds 1 to 62 on LRRK2 (leucine-rich repeat kinase 2) in vitro was measured. In the analysis of the results, IC50 values were calculated for a quantitative comparison of the in vitro activity.
After the compound was dissolved in 100% DMSO at 10 mM, it was serially diluted to the range of 1 μM to 10 μM using biochemical LRRK2 assay buffer (50 mM HEPES (4-(2-hydroxyethyl)-1-piperazineethanesulfonic acid) pH 7.5, 10 mM MgCl2, 1 mM EGTA (1,2-bis(o-aminophenoxy)ethane-N,N,N′,N′-tetraacetic acid), 2 mM DTT (dithiothreitol), and 0.01% TWEEN-20 (Aldrich)). Purified LRRK2 (CARNA BIOSCIENCES) was added to a black U-bottom 96-well microtiter plate containing 6 μl of the serially diluted compound, followed by incubation at room temperature for 30 minutes. For the kinase reaction, ATP and a substrate solution specific urea-polypeptide (ULIGHT™-poly TK, PerkinElimer) were added. The reaction was carried out at room temperature for 1 hour, and it was detected with an detection solution (brand name: LANCE™) containing EDTA. A LANCE detection solution containing europium-labeled antibody ([…] PT66) was added, followed by incubation at room temperature for 50 minutes, to terminate the kinase experiment. The phosphorylated substrate was detected by 665 nm emission measurement. IC50 values were calculated by a non-linear regression analysis using a Prism program (PRISM™ software) with reference to the absence of a kinase inhibitor.
As a comparative assay, a compound LRR2-IN-1, that known to be a reference compound for LRRK2 inhibitor, have also tested an inhibitory activity.

[1] = Table 1, class symbols, read-out: LRRK2 inhibition rate (IC50)
[2] = purified LRRK2, Table 6, read-out: IC50

Sequence of LRRK2 (leucine-rich repeat kinase 2) (Q5S007 whole entry): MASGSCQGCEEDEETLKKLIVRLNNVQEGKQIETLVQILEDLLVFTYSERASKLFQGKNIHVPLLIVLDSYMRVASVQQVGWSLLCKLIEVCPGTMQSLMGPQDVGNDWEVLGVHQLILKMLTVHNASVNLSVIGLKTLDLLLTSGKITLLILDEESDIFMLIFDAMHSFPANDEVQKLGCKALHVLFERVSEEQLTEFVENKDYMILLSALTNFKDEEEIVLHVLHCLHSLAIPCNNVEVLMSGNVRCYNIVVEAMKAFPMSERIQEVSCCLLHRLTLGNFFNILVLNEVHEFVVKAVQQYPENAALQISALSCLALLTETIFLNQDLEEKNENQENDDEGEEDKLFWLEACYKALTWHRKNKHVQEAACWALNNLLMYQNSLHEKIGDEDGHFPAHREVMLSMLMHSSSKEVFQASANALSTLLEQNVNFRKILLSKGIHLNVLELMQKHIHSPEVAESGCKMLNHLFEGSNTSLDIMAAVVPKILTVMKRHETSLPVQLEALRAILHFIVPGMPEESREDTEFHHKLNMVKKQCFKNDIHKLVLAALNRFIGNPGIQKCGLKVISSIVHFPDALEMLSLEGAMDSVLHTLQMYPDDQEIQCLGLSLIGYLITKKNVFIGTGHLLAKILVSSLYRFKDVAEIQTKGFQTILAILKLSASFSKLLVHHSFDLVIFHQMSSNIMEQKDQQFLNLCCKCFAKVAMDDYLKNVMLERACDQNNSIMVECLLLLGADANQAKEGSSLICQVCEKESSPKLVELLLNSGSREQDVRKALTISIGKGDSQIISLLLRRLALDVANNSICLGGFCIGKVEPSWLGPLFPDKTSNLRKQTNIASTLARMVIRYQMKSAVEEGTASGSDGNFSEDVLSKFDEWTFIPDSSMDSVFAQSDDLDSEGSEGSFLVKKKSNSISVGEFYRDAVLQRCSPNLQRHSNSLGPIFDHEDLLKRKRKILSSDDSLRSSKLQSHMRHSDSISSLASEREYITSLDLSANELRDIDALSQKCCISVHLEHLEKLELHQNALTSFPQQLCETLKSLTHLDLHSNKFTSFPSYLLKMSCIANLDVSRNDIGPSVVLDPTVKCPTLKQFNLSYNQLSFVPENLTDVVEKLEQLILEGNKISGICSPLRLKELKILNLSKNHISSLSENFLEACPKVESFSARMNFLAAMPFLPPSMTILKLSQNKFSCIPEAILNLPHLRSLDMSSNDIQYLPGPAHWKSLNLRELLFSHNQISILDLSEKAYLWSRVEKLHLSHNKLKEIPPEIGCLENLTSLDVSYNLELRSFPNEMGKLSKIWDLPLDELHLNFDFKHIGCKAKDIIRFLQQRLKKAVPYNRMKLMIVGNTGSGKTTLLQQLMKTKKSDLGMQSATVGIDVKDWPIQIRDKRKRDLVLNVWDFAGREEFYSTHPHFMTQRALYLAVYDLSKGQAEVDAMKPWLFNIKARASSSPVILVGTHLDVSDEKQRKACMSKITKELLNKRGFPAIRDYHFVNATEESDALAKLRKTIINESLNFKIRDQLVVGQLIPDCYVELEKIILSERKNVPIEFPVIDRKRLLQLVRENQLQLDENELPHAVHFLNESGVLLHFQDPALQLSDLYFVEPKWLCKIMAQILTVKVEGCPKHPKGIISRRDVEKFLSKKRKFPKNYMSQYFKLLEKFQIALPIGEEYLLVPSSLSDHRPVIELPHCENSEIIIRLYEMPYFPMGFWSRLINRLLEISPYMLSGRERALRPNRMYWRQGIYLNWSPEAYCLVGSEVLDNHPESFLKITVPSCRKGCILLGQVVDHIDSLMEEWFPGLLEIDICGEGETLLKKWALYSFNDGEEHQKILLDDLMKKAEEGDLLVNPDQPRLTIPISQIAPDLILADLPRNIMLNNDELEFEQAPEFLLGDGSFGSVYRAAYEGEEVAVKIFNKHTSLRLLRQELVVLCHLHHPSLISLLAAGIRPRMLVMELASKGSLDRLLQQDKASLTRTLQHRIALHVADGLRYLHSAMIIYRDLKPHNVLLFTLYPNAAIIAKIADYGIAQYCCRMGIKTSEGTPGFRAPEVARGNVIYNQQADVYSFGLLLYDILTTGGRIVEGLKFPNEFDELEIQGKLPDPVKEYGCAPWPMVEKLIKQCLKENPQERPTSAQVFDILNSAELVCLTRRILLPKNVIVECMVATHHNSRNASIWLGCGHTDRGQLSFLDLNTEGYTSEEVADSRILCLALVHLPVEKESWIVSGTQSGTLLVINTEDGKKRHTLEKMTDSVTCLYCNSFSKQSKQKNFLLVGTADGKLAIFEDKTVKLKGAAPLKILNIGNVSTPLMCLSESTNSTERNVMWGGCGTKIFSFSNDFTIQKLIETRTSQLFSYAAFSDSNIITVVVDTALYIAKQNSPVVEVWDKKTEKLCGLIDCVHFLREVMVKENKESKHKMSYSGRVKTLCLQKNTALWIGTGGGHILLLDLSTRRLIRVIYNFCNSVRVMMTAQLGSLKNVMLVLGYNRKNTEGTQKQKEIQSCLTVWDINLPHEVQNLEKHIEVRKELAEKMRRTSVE

Row | IC50 [1] [nM] | IC50 [2] [nM] | SMILES
1 | < 10 | 4.75 | CCn1nc(Cl)c2cnc(Nc3cn(C4CCCN(S(C)(=O)=O)CC4)nc3Cl)nc21 (stereo not shown) [Compound 51, 3-chloro-N-(3-chloro-1-(1-(methylsulfonyl)azepan-4-yl)-1H-pyrazol-4-yl)-1-ethyl-1H-pyrazolo[3,4-d]pyrimidin-6-amine]
2 | < 10 | 6.48 | CCn1nc(Cl)c2cnc(Nc3cn(C4CCN(S(=O)(=O)C5CC5)CC4)nc3Cl)nc21 [Compound 47, 3-chloro-N-(3-chloro-1-(1-(cyclopropylsulfonyl)piperidin-4-yl)-1H-pyrazol-4-yl)-1-ethyl-1H-pyrazolo[3,4-d]pyrimidin-6-amine]
3 | 10 to 100 | – | CCn1cc(Cl)c2cnc(Nc3cn([C@@H]4CCN(C(=O)C5CCCC5)C4)nc3Cl)nc21 [Compound 38, (R)-(3-(3-chloro-4-(5-chloro-7-ethyl-7H-pyrrolo[2,3-d]pyrimidin-2-ylamino)-1H-pyrazol-1-yl)pyrrolidin-1-yl)(cyclopentyl)methanone]
4 | 10 to 100 | – | CCn1cc(Cl)c2cnc(Nc3cn(C4CC4)nc3Cl)nc21 [Compound 14, 5-chloro-N-(3-chloro-1-cyclopropyl-1H-pyrazol-4-yl)-7-ethyl-7H-pyrrolo[2,3-d]pyrimidin-2-amine]
5 | < 10 | – | CCn1nc(Cl)c2cnc(Nc3cn(C4CCN(C(=O)C(C)(C)C)CC4)nc3Cl)nc21 [Compound 53, 1-(4-(3-chloro-4-(3-chloro-1-ethyl-1H-pyrazolo[3,4-d]pyrimidin-6-ylamino)-1H-pyrazol-1-yl)piperidin-1-yl)-2,2-dimethylpropane-1-one]
6 | < 10 | 6.07 | CCn1cc(Cl)c2cnc(Nc3cn(C4CCN(C(=O)C(C)(C)C)CC4)nc3Cl)nc21 [Compound 33, 1-(4-(3-chloro-4-(5-chloro-7-ethyl-7H-pyrrolo[2,3-d]pyrimidin-2-ylamino)-1H-pyrazol-1-yl)piperidin-1-yl)-2,2-dimethylpropane-1-one]
7 | < 10 | 4.66 | CCn1cc(Cl)c2cnc(Nc3cn(C4CCN(C(=O)N5CCOCC5)CC4)nc3Cl)nc21 [Compound 31, (4-(3-chloro-4-(5-chloro-7-ethyl-7H-pyrrolo[2,3-d]pyrimidin-2-ylamino)-1H-pyrazol-1-yl)piperidin-1-yl)(morpholino)methanone]
8 | 10 to 100 | – | CCn1cc(Cl)c2cnc(Nc3cn(C4CCN(C)CC4)nc3Cl)nc21 [Compound 17, 5-chloro-N-(3-chloro-1-(1-methylpiperidin-4-yl)-1H-pyrazol-4-yl)-7-ethyl-7H-pyrrolo[2,3-d]pyrimidin-2-amine]
9 | < 10 | 2.5 | CCn1cc(Cl)c2cnc(Nc3cn(C4CCN(C(=O)N5CCN(C)CC5)CC4)nc3Cl)nc21 [Compound 32, (4-(3-chloro-4-(5-chloro-7-ethyl-7H-pyrrolo[2,3-d]pyrimidin-2-ylamino)-1H-pyrazol-1-yl)piperidin-1-yl)(4-methylpiperazin-1-yl)methanone]
10 | 10 to 100 | – | CCn1cc(Cl)c2cnc(Nc3cn(CCOC)nc3Cl)nc21 [Compound 12, 5-chloro-N-(3-chloro-1-(2-methoxyethyl)-1H-pyrazol-4-yl)-7-ethyl-7H-pyrrolo[2,3-d]pyrimidin-2-amine]
11 | – | 8.2 | COc1cc(C(=O)N2CCC(N3CCN(C)CC3)CC2)ccc1Nc1ncc2c(n1)N(C)c1ccccc1C(=O)N2C [LRRK2-IN-1, reference compound]
12 | 100 to 1000 | – | CCn1cc(Cl)c2cnc(Nc3cnn(-c4ccc(Cl)cc4)c3Cl)nc21 [Compound 22, 5-chloro-N-(5-chloro-1-(4-chlorophenyl)-1H-pyrazol-4-yl)-7-ethyl-7H-pyrrolo[2,3-d]pyrimidin-2-amine]
13 | 10 to 100 | – | CCn1cc(Cl)c2cnc(Nc3cnn(C)c3Cl)nc21 [Compound 6, 5-chloro-N-(5-chloro-1-methyl-1H-pyrazol-4-yl)-7-ethyl-7H-pyrrolo[2,3-d]pyrimidin-2-amine]
14 | 10 to 100 | – | CCn1nc(Cl)c2cnc(Nc3cnn(C4CCN(C5COC5)CC4)c3Cl)nc21 [Compound 45, 3-chloro-N-(5-chloro-1-(1-(oxetan-3-yl)piperidin-4-yl)-1H-pyrazol-4-yl)-1-ethyl-1H-pyrazolo[3,4-d]pyrimidin-6-amine]
15 | 10 to 100 | – | CC(=O)N1CCC(n2ncc(Nc3ncc4c(Cl)cn(C)c4n3)c2Cl)CC1 [Compound 23, 1-(4-(5-chloro-4-(5-chloro-7-methyl-7H-pyrrolo[2,3-d]pyrimidin-2-ylamino)-1H-pyrazol-1-yl)piperidin-1-yl)ethanone]
16 | 100 to 1000 | – | CCn1cc(Cl)c2cnc(Nc3cn(-c4ccc(F)cc4)nc3Cl)nc21 [Compound 21, 5-chloro-N-(3-chloro-1-(4-fluorophenyl)-1H-pyrazol-4-yl)-7-ethyl-7H-pyrrolo[2,3-d]pyrimidin-2-amine]
17 | 10 to 100 | – | CCn1cc(Cl)c2cnc(Nc3cn([C@@H]4CCN(S(C)(=O)=O)C4)nc3Cl)nc21 [Compound 36, (R)-5-chloro-N-(3-chloro-1-(1-(methylsulfonyl)pyrrolidin-3-yl)-1H-pyrazol-4-yl)-7-ethyl-7H-pyrrolo[2,3-d]pyrimidin-2-amine]
18 | 10 to 100 | – | CCn1cc(Cl)c2cnc(Nc3cn([C@H]4CCN(C(=O)C5CCCC5)C4)nc3Cl)nc21 [Compound 39, (S)-(3-(3-chloro-4-(5-chloro-7-ethyl-7H-pyrrolo[2,3-d]pyrimidin-2-ylamino)-1H-pyrazol-1-yl)pyrrolidin-1-yl)(cyclopentyl)methanone]
19 | 100 to 1000 | – | COCCn1cc(Nc2ncc3c(Cl)cn(C)c3n2)c(C(F)(F)F)n1 [Compound 10, 5-chloro-N-(1-(2-methoxyethyl)-3-(trifluoromethyl)-1H-pyrazol-4-yl)-7-methyl-7H-pyrrolo[2,3-d]pyrimidin-2-amine]
20 | 10 to 100 | – | CCn1cc(Cl)c2cnc(Nc3cn(C(C)C)nc3Cl)nc21 [Compound 8, 5-chloro-N-(3-chloro-1-isopropyl-1H-pyrazol-4-yl)-7-ethyl-7H-pyrrolo[2,3-d]pyrimidin-2-amine]
21 | < 10 | – | CCn1nc(Cl)c2cnc(Nc3cn(C4CCN(C(=O)N5CCOCC5)CC4)nc3Cl)nc21 [Compound 54, (4-(3-chloro-4-(3-chloro-1-ethyl-1H-pyrazolo[3,4-d]pyrimidin-6-ylamino)-1H-pyrazol-1-yl)piperidin-1-yl)(morpholino)methanone]
22 | 100 to 1000 | – | CCn1cc(Cl)c2cnc(Nc3c(C)nn(C4CCN(S(C)(=O)=O)CC4)c3C)nc21 [Compound 34, 5-chloro-N-(3,5-dimethyl-1-(1-(methylsulfonyl)piperidin-4-yl)-1H-pyrazol-4-yl)-7-ethyl-7H-pyrrolo[2,3-d]pyrimidin-2-amine]
23 | 10 to 100 | – | CCn1nc(Cl)c2cnc(Nc3cn(-c4ccc(F)cc4)nc3Cl)nc21 [Compound 44, 3-chloro-N-(3-chloro-1-(4-fluorophenyl)-1H-pyrazol-4-yl)-1-ethyl-1H-pyrazolo[3,4-d]pyrimidin-6-amine]
24 | 10 to 100 | – | CC(C)n1cc(Nc2ncc3c(Cl)cn(C)c3n2)c(Cl)n1 [Compound 3, 5-chloro-N-(3-chloro-1-isopropyl-1H-pyrazol-4-yl)-7-methyl-7H-pyrrolo[2,3-d]pyrimidin-2-amine]
25 | 10 to 100 | – | CCn1nc(Cl)c2cnc(Nc3cn(C4CN(C(=O)C5CC5)C4)nc3Cl)nc21 [Compound 60, (3-(3-chloro-4-(3-chloro-1-ethyl-1H-pyrazolo[3,4-d]pyrimidin-6-ylamino)-1H-pyrazol-1-yl)azetidin-1-yl)(cyclopropyl)methanone]
26 | < 10 | 6.5 | CCn1cc(Cl)c2cnc(Nc3cnn(C4CCN(C5COC5)CC4)c3Cl)nc21 [Compound 28, 5-chloro-N-(5-chloro-1-(1-(oxetan-3-yl)piperidin-4-yl)-1H-pyrazol-4-yl)-7-ethyl-7H-pyrrolo[2,3-d]pyrimidin-2-amine]
27 | 10 to 100 | – | CCn1cc(Cl)c2cnc(Nc3cn(C4CCN(C(=O)C(C)C)CC4)nc3Cl)nc21 [Compound 26, 1-(4-(3-chloro-4-(5-chloro-7-ethyl-7H-pyrrolo[2,3-d]pyrimidin-2-ylamino)-1H-pyrazol-1-yl)piperidin-1-yl)-2-methylpropane-1-one]
28 | 10 to 100 | – | CCn1cc(Cl)c2cnc(Nc3cn(C4CCOCC4)nc3Cl)nc21 [Compound 18, 5-chloro-N-(3-chloro-1-(tetrahydro-2H-pyran-4-yl)-1H-pyrazol-4-yl)-7-ethyl-7H-pyrrolo[2,3-d]pyrimidin-2-amine]
29 | 10 to 100 | – | CCn1nc(Cl)c2cnc(Nc3cnn(C4CCN(S(C)(=O)=O)CC4)c3Cl)nc21 [Compound 62, 3-chloro-N-(5-chloro-1-(1-(methylsulfonyl)piperidin-4-yl)-1H-pyrazol-4-yl)-1-ethyl-1H-pyrazolo[3,4-d]pyrimidin-6-amine]
30 | < 10 | 2.02 | CS(=O)(=O)N1CCC(n2cc(Nc3ncc4c(Cl)cn(C5CC5)c4n3)c(Cl)n2)CC1 [Compound 30, 5-chloro-N-(3-chloro-1-(1-(methylsulfonyl)piperidin-4-yl)-1H-pyrazol-4-yl)-7-cyclopropyl-7H-pyrrolo[2,3-d]pyrimidin-2-amine]
